How the values were obtained:
[1] = target: T1, CeuE mutant H227A (Campylobacter jejuni, UniProt Q0P8Q4, H247A); experiment: Intrinsic fluorescence quenching titration, CeuE mutant H227A; conditions: 240 nM protein in 40 mM Tris-HCl pH 7.5, 150 mM NaCl; 1:1 binding model; triplicate
T1 sequence (Q0P8Q4 44-330 H247A): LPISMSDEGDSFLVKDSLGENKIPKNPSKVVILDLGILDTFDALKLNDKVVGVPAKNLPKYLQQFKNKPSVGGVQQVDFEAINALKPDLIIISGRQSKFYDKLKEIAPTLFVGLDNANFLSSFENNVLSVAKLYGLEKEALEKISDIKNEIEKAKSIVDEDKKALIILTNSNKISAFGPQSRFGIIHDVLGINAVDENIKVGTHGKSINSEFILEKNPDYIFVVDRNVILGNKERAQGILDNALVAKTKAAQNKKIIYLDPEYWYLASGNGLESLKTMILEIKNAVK
Excerpt: (§1) The affinities of CeuE for the four Fe-n-Lic complexes were quantified using intrinsic fluorescence quenching, Table 1, with measurements carried out in triplicate. The data were fitted to a 1:1 binding model and analyzed by non-linear regression. […] An attempt to determine the Kd value of Fe-5-Lic by using a more dilute protein solution was unsuccessful because of the inherent decrease in emission intensity reaching the detection limit of the fluorimeter.
(§2) The binding studies with wild type CeuE were followed by titrations to determine the ligand affinity of all five mutants. Fe-5-Lic was chosen because of its strong binding to wild type CeuE and because its linker length matches that of natural catecholate siderophores. Mutation of the Fe(III)-coordinating tyrosine led to a drastic drop in binding affinity in both the single (Y228F) and the double mutants (H227L/Y288F and H227A/Y288F), with Kd values above 1 μM. In contrast, the effect of mutating the histidine was less pronounced. […] However, there is an additional entropic contribution to consider.
(§3) Subsequently, titrations were carried out with Fe-4-Lic, Fe-6-Lic and Fe-8-Lic to identify trends in the affinity for mutants H227L and H227A (Fig. 6(b) and (c)) (Table 1). The resulting Kd values show trends similar to that observed for wild type, but with systematically weaker binding.
(§4) Fluorescence quenching studies with CeuE were carried out on a Hitachi F-4500 fluorescence spectrophotometer as previously reported.
(§5) A 240 nM solution of CeuE in 40 mM Tris-HCl pH 7.5, 150 mM NaCl was prepared and the concentration verified by both the Bradford method and UV-vis absorbance at 280 nm, using the molar absorbance coefficient predicted by ProtParam (15930 mol^−1 dm^3 cm^−1)[43]. The CeuE solution (2 mL) was titrated stepwise with 16 aliquots of a 12 μM Fe-n-Lic solution resulting in a concentration range of Fe-n-Lic of 0 to 1.19 μM. The observed emission intensity was corrected for photomultiplier tube response and buffer subtracted, then integrated between 310 and 410 nm. The data were normalized and analyzed by nonlinear regression using a one-site binding model in DynaFit[26]. Each system was analyzed in triplicate and the average dissociation constants were calculated as reported previously.

[2] = target: T2, WT CeuE (Campylobacter jejuni, UniProt Q0P8Q4); experiment: Intrinsic fluorescence quenching titration, wild type CeuE; conditions: 240 nM protein in 40 mM Tris-HCl pH 7.5, 150 mM NaCl; 1:1 binding model; triplicate
T2 sequence (Q0P8Q4 44-330): T1 sequence (Q0P8Q4 44-330 H247A)
Excerpt: as §1, §4, §5

[3] = target: T3, CeuE mutant H227L (Campylobacter jejuni, UniProt Q0P8Q4, H247L); experiment: Intrinsic fluorescence quenching titration, CeuE mutant H227L; conditions: 240 nM protein in 40 mM Tris-HCl pH 7.5, 150 mM NaCl; 1:1 binding model; triplicate
T3 sequence (Q0P8Q4 44-330 H247L): T1 sequence (Q0P8Q4 44-330 H247A)
Excerpt: as §1, §2, §3, §4, §5

[4] = target: T1, CeuE mutant H227A; experiment: Circular dichroism of LMCT band, mutant H227A; assay type: binding; conditions: 50 μM in 100 mM TRIS buffer, 150 mM NaCl, 0.5% DMSO, pH 7.5
Excerpt: (§6) To confirm that the preference for the Λ-configuration is retained in solution, circular dichroism (CD) spectroscopy was used to probe the ligand-to-metal charge transfer (LMCT) band (Fig. 8(a)). The minimum and maximum of the region of the LMCT band at approximately 408 nm and 595 nm, respectively, are indicative of the Λ-configuration[29], with no CD signal observed in the absence of either the protein or ligand, confirming that the protein selectively binds the Λ-configuration.
(§7) The Y228F mutants gave no signal, confirming a lack of Λ-configuration induction, which may indicate a lack of ligand binding. […] Complexes of H227L and H227A were then prepared with all four Fe-n-Lic complexes.
(§8) Solutions of wild type CeuE and mutant proteins were diluted to 5 × 10^−5 M in buffer containing 150 mM NaCl and 0.11 M Tris, adjusted to pH 7.5. […]
(§9) Spectra were recorded using a solution containing 880 μL 0.11 M Tris pH 7.5, 150 mM NaCl buffer, 100 μL (Fe(III)-n-Lic (n = 4, 5, 6, 8) NTA solution and 20 μL to 5 × 10^−5 M CeuE, resulting in a 50:1 excess of ligand to ensure full binding.
(§10) The spectra were recorded from 300–700 nm and buffer subtracted (data pitch […], scan speed 100 nm min^−1, response 2 seconds, bandwidth 2 nm, path length 1 cm). The spectra were recorded 5 times and averaged.

[5] = target: T4, CeuE single mutant Y228F (Campylobacter jejuni, UniProt Q0P8Q4, Y308F); experiment: Intrinsic fluorescence quenching titration, CeuE single mutant Y228F; assay type: binding
T4 sequence (Q0P8Q4 44-330 Y308F): T1 sequence (Q0P8Q4 44-330 H247A)
Protocol: as §2, §4
as §5, with “The observed emission intensity was corrected for photomultiplier tube response and buffer subtracted, then integrated between 310 and 410 nm.” left out

[6] = target: T5, CeuE double mutant H227L/Y288F (Campylobacter jejuni, UniProt Q0P8Q4, H247L/Y308F); experiment: Intrinsic fluorescence quenching titration, CeuE double mutant H227L/Y288F; assay type: binding
T5 sequence (Q0P8Q4 44-330 H247L/Y308F): T1 sequence (Q0P8Q4 44-330 H247A)
Protocol: as §2, §4
as §5, with “The observed emission intensity was corrected for photomultiplier tube response and buffer subtracted, then integrated between 310 and 410 nm.” left out

[7] = target: T3, CeuE mutant H227L; experiment: Circular dichroism of LMCT band, mutant H227L; assay type: binding; conditions: 50 μM in 100 mM TRIS buffer, 150 mM NaCl, 0.5% DMSO, pH 7.5
Excerpt: as §6, §7, §8, §9, §10

[8] = test system: CeuE Y228F mutants; experiment: Circular dichroism of LMCT band, Y228F mutants; assay type: binding, Campylobacter jejuni; conditions: 50 μM in 100 mM TRIS buffer, 150 mM NaCl, 0.5% DMSO, pH 7.5
Excerpt: as §6, §7, §8, §9, §10

[9] = target: T6, CeuE double mutant H227A/Y288F (Campylobacter jejuni, UniProt Q0P8Q4, H247A/Y308F); experiment: Intrinsic fluorescence quenching titration, CeuE double mutant H227A/Y288F; assay type: binding
T6 sequence (Q0P8Q4 44-330 H247A/Y308F): T1 sequence (Q0P8Q4 44-330 H247A)
Protocol: as §2, §4
as §5, with “The observed emission intensity was corrected for photomultiplier tube response and buffer subtracted, then integrated between 310 and 410 nm.” left out

| SMILES | Kd [1] | Kd [2] | Kd [3] | CD signal of Λ-configuration (LMCT band), mutant H227A [4] | Kd [5] | Kd [6] | CD signal of Λ-configuration (LMCT band), mutant H227L [7] | CD signal of Λ-configuration (LMCT band), Y228F mutants [8] | Kd [9] |
| --- | --- | --- | --- | --- | --- | --- | --- | --- | --- |
| O=C(NCCCCNC(=O)c1cccc(O)c1O)c1cccc(O)c1O [Fe-4-Lic] | 0.131 ± 0.028 µM | 0.021 ± 0.006 µM | 0.09 ± 0.03 µM |  |  |  |  |  |  |
| O=C(NCCCCCNC(=O)c1cccc(O)c1O)c1cccc(O)c1O [Fe-5-Lic] | 0.035 ± 0.014 µM | < 0.01 µM | 0.022 ± 0.01 µM | Λ-configuration signal was observed | > 1 µM | > 1 µM | Λ-configuration signal was observed | no signal | > 1 µM |
| O=C(NCCCCCCNC(=O)c1cccc(O)c1O)c1cccc(O)c1O [Fe-6-Lic] | 0.041 ± 0.007 µM | 0.033 ± 0.008 µM | 0.065 ± 0.021 µM |  |  |  |  |  |  |
| O=C(NCCCCCCCCNC(=O)c1cccc(O)c1O)c1cccc(O)c1O [Fe-8-Lic] | 0.125 ± 0.036 µM | 0.058 ± 0.008 µM | 0.112 ± 0.021 µM |  |  |  |  |  |  |

Source: publication PMC5382913, “Interactions of the periplasmic binding protein CeuE with Fe(III) n-LICAM^4− siderophore analogues of varied linker length” (Scientific Reports, 2017)
